{
  "source": "patent US20250215071A1",
  "about": "“Novel Mcl-1 inhibitor and combination of Mcl-1 and a BH3 mimetic, such as a Bcl-2 inhibitor” (NETRIS PHARMA, priority 2022, published 2025)",
  "key": {"UNC5B-induced cell death": {"tested_on": "UNC5B-induced cell death", "assay": "UNC5B-induced cell death under inhibition of neddylation", "format": "cell-based"}, "caspase-9": {"tested_on": "caspase-9", "assay": "UNC5B-induced caspase-9 activity in HeLa UNC5B cells", "format": "cell-based, Human", "conditions": "Dox; 18 hours", "procedure": "FIG. 5. UNC5B-mediated Mcl-1 degradation induces MOMP and caspase-9 activation. (A): UNC5B over-expression triggers Mitochondrial Outer Membrane Permeabilization (MOMP) in a COMMD2/CRL3 complex-dependent manner. Hela cells were transfected with scramble (siCTRL), COMMD2 (siCOMMD2-1) or RBX1 (siRBX1-1) siRNAs. 24 hours after transfection, cells were treated with Dox and after further 18 hours mitochondrial depolarization quantified by 5′,6,6′-tetrachloro-1,1′,3,3′-tetraethylbenzimi-dazolylcarbocyanine iodide (JC-1) dye staining, using NucleoCounter NC3000 (n=3, **** p<0.0001, ordinary two-way ANOVA with Tukey's multiple comparisons test). Values are given as means±SEM. (B,C,D): Apoptotic cell death induced by UNC5B over-expression requires caspase-9. HeLa UNC5B cells were transfected with scramble (siCTRL) or caspase-9 (siCASP9) siRNAs and 24 hours later treated with the indicated concentrations of Dox. Propidium iodide (PI)-positive cells were assessed in real-time up to 48 hours using Incucyte Zoom instrument (C) (n=[…], Kolmogorov-Smirnov test). DNA fragmentation was assessed by FACS analysis (D) and caspase-3 was measured using caspase-3 fluorometric kit (E), both 18 hours after treatment (n=[…], **** p<0.0001, ordinary two-way ANOVA with Šidák's multiple comparisons test). Values are given as means±SEM. […] HeLa UNC5B cells were treated with Dox and 18 hours later caspase-9 and -8 activities were assessed by fluorometric kit, using specific substrates (n=3, ^nsp>0.05, *p<0.05, Mann-Whitney test, one-tailed). […] 24 hours later, cells were treated with Dox and caspase-9 activity was measured by fluorometric kit (n=3, **** p<0.0001, ordinary two-way ANOVA with Tukey's multiple comparisons test). […] 18 hours after treatment, caspase-9 activity was assessed with the fluorometric kit (n=5, *p<0.05, ** p<0.01, *** p<0.001, **** p<0.0001, ordinary two-way ANOVA with Tukey's multiple comparisons test). […] Cells were then treated with Dox and Mcl-1 protein was evaluated by western blot. […]"}, "[1]": {"conditions": "cited from earlier work"}, "HCC70": {"tested_on": "HCC70", "assay": "Propidium iodide incorporation (Incucyte Zoom) in HCC70 cells with netrin-1 silencing", "format": "cell-based", "conditions": "up to 24 hours", "procedure": "FIG. 10. Cell death assessment by combining netrin-1 silencing and Navitoclax. To assess cell death, Propidium iodide (PI) incorporation, normalized to cell confluence, was followed in real-time up to 24 hours by Incucyte Zoom technology for scramble (siCTRL), netrin-1 (siNet), scramble (siCTRL) and Navitoclax, netrin-1 (siNet) and Navitoclax.\nIn addition, breast cancer HCC70 were transfected with scramble (siCTRL) or netrin-1 (siNet) targeting siRNAs. 24 hours after transfection, cells were detached, plated again in 24-well plate and treated with 0.5 µM of the Bcl-2/Bcl-XL/Bcl-w inhibitor Navitoclax (Tse et al, Cancer Res, 2008; Shoemaker et al, Clin Cancer Res, 2008). To assess cell death, propidium iodide (PI) incorporation, normalized to cell confluence, was followed in real-time up to 24 hours by Incucyte Zoom technology."}},
  "data": [
    {"smiles": "NS(=O)(=O)OC[C@@H]1C[C@@H](n2ccc3c(N[C@H]4CCc5ccccc54)ncnc32)C[C@@H]1O", "note": "[pevonedistat]", "values": [
      {"measurement": "UNC5B-induced cell death", "setting": "UNC5B-induced cell death", "value": "prevented UNC5B-induced cell death"},
      {"measurement": "UNC5B-induced caspase-9 activation", "setting": "caspase-9", "value": "sufficient to prevent UNC5B-induced caspase-9 activation"}
    ]},
    {"smiles": "Cc1c(-c2c(-c3ccc(F)o3)sc3ncnc(O[C@H](Cc4ccccc4OCc4ccnn4CC(F)(F)F)C(=O)O)c23)ccc(OCCN2CCN(C)CC2)c1Cl", "note": "[S63845]", "values": [
      {"measurement": "tolerability", "setting": "[1]; Brennan et al., 2018", "value": "overall good tolerability"},
      {"measurement": "B-cell population", "setting": "[1]; during treatment (Brennan et al., 2018)", "value": "decrease in the B-cell population"}
    ]},
    {"smiles": "CC1(C)CCC(c2ccc(Cl)cc2)=C(CN2CCN(c3ccc(C(=O)NS(=O)(=O)c4ccc(N[C@H](CCN5CCOCC5)CSc5ccccc5)c(S(=O)(=O)C(F)(F)F)c4)cc3)CC2)C1", "note": "[Navitoclax]", "values": [
      {"measurement": "cell death induction (PI incorporation)", "setting": "HCC70; 0.5 µM alone (siCTRL)", "value": "slight effect on cell death induction"},
      {"measurement": "cell death induction (PI incorporation)", "setting": "HCC70; 0.5 µM combined with netrin-1 silencing (siNet)", "value": "quickly and strongly triggered apoptosis"}
    ]}
  ]
}
